The source of these data is patent US20220324835A1 (Nurix Therapeutics, Inc., priority 2018, published 2022).

The target of assay [1] is T1, Cbl-b (Homo sapiens, UniProt Q13191). The assay is described as follows: Cbl-b inhibition assay (Cbl-b activity assay, FRET, Biological Example 1; 100 mM NaCl, 60 nM Src kinase). In kind it is biochemical. The conditions noted are these: upper bound stated in text lists; read-out: IC50 values in the Cbl-b inhibition assay of Biological Example 1. The text has this: FIG. 1A and FIG. 1B show a series of diagrams depicting the activity assay utilized to assay inhibition of Cbl-b activity by a Cbl-b inhibitor. FIG. 1A: The activity assay mixture comprises an N-terminal biotinylated Avi-tagged Cbl-b, an E2 enzyme (i.e., UbcH5B) irreversibly conjugated to Bodipy-Fluorescein tagged ubiquitin (i.e., UbcH5B-Ub), a Src kinase, streptavidin-terbium, and assay buffer. Phosphorylation of Cbl-b by the Src kinase allows UbcH5B-Ub to bind to Cbl-b and bring the Bodipy-Fluorescein tagged ubiquitin in proximity to the streptavidin-terbium bound to the N-terminal biotinylated Avi-tagged Cbl-b. […] FIG. 1B: In the presence of a Cbl-b inhibitor, such as one described herein, Cbl-b is unable to bind UbcH5B-Ub. The lack of a FRET signal indicates Cbl-b is inhibited by the Cbl-b inhibitor. Ub indicates ubiquitin; N-Avi indicates biotinylated Avi-tag at the N-terminus of Cbl-b; inhibitor indicates Cbl-b inhibitor.
T1 sequence (Q13191 36-427): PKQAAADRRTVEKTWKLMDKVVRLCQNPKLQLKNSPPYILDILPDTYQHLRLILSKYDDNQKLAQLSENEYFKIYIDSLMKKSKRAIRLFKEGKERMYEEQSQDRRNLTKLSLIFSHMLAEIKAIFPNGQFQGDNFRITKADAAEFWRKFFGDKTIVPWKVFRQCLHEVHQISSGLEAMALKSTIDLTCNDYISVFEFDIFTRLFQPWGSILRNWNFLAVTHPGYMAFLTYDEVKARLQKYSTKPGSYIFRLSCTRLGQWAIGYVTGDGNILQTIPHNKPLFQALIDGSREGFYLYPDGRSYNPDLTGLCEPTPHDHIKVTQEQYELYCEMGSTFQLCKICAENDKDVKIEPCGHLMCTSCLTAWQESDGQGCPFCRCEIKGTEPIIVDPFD
The lack of a FRET signal indicates Cbl-b is inhibited by the Cbl-b inhibitor. In FIG. 1A and FIG. 1B, Ub indicates ubiquitin; N-Avi indicates biotinylated Avi-tag at the N-terminus of Cbl-b; and inhibitor indicates Cbl-b inhibitor.

Assay [2] concerns the target T1, Cbl-b. Briefly: Cbl-b activity assay (Cbl-b inhibition assay), TR-FRET of Cbl-b interaction with UbcH5B-Ub. The conditions noted are these: assay buffer with 100 mM NaCl, 60 nM Src kinase; read-out: Cbl-b activity IC50. It is filed as biochemical. In a few lines:
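TR-FRET readout of Cbl-b binding to Bodipy-fluorescein N-terminally labeled Ub conjugated to UbcH5B C85K, measured with compound present. After compound incubation, 60 nM Src kinase with 1 mM ATP and 5 mM MgCl2 (final) was added for 1.5 h, then a further 1 h incubation; asterisked values used 50 mM NaCl buffer and 30 nM Src.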
A general note: Time-resolved FRET reads energy transfer from a long-lived donor to a nearby acceptor.

Some results are limits rather than exact numbers.

Broadly, the IC50 is the concentration that gives 50% inhibition.

Turning to `CCOC(Cc1nncn1C)c1cccc(N2Cc3c(cccc3C(F)(F)F)C2=O)c1` (centres unmarked) [Compound 291, 2-(3-(1-ethoxy-2-(4-methyl-4H-1,2,4-triazol-3-yl)ethyl)phenyl)-4-(trifluoromethyl)isoindolin-1-one], the values for the IC50 on Cbl-b [1] and on Cbl-b [2] were at most 10000 nM and 3000 to 10000 nM, respectively.

Turning to `Cn1cnnc1C(F)(F)[C@@](C)(F)c1cccc(N2Cc3c(cccc3C(F)(F)F)C2=O)c1` [Compound 296b, (S)-2-(3-(1,1,2-trifluoro-1-(4-methyl-4H-1,2,4-triazol-3-yl)propan-2-yl)phenyl)-4-(trifluoromethyl)isoindolin-1-one], the IC50 on Cbl-b [1] is at most 10000 nM; at Cbl-b [2], 3000 to 10000 nM.

`Cn1cnnc1CC(C)(O)c1cccc(N2Cc3c(cccc3C(F)(F)F)C2=O)c1` (centres unmarked) [Compound 297, 2-(3-(2-hydroxy-1-(4-methyl-4H-1,2,4-triazol-3-yl)propan-2-yl)phenyl)-4-(trifluoromethyl)isoindolin-1-one]: the IC50 on Cbl-b [1] is at most 10000 nM; at Cbl-b [2], 3000 to 10000 nM.

With `C[C@@H]1CN(Cc2cc(C(=O)Nc3cccc(C4(Cc5nncn5C)COC4)c3)nc(C3CC3)c2)CCO1` [Compound 501, 6-cyclopropyl-N-(3-{3-[(4-methyl-1,2,4-triazol-3-yl)methyl]oxetan-3-yl}phenyl)-4-{[(2R)-2-methylmorpholin-4-yl]methyl}pyridine-2-carboxamide], the IC50 on Cbl-b [1] was at most 100 nM; on Cbl-b [2], below 100 nM.

In the case of `Cc1cc(C(=O)Nc2cccc(C3(Cc4[nH]ncc4C)COC3)c2)nc(C2CC2)n1` [Compound 510, 2-cyclopropyl-6-methyl-N-(3-{3-[(4-methyl-1H-pyrazol-3-yl)methyl]oxetan-3-yl}phenyl)pyrimidine-4-carboxamide], the results for the IC50 on Cbl-b [1] and at Cbl-b [2] were at most 100 nM and below 100 nM, respectively.

Turning to `Cc1cc(C(=O)Nc2cccc(C3=C(c4nncn4C)CCC3)c2)nc(C2CC2)n1` [Compound 518, 2-cyclopropyl-6-methyl-N-(3-(2-(4-methyl-4H-1,2,4-triazol-3-yl)cyclopent-1-en-1-yl)phenyl)pyrimidine-4-carboxamide], the values for the IC50 at Cbl-b [1] and on Cbl-b [2] were at most 300 nM and 100 to 300 nM, respectively.

In the case of `Cn1cnnc1CC1(c2cccc(N3Cc4c(cc(CN5CCOC(CCF)C5)cc4C(F)(F)F)C3=O)c2)COC1` (centres unmarked) [Compound 521, 6-{[2-(2-fluoroethyl)morpholin-4-yl]methyl}-2-(3-{3-[(4-methyl-1,2,4-triazol-3-yl)methyl]oxetan-3-yl}phenyl)-4-(trifluoromethyl)-3H-isoindol-1-one], the concentration for half-maximal inhibition (IC50) is at most 100 nM on Cbl-b [1] and below 100 nM at Cbl-b [2].

On to `C[C@@H]1CN(Cc2cc3c(c(C(F)(F)F)c2)CN(c2cccc(-c4c(-c5nncn5C)cnn4C)c2)C3=O)CCO1` [Compound 524, (R)-2-(3-(l-methyl-4-(4-methyl-4H-1,2,4-triazol-3-yl)-1H-pyrazol-5-yl)phenyl)-6-((2-methylmorpholino)methyl)-4-(trifluoromethyl)isoindolin-1-one], for which the IC50 on Cbl-b [1] was at most 100 nM; at Cbl-b [2] it was below 100 nM.

On to `C[C@@H]1CN(Cc2cc3c(c(C(F)(F)F)c2)CN(c2cccc(-c4c(-c5nncn5C)cnn4C)c2)C3=O)C[C@H](C)O1` [Compound 525, 6-(((2S,6S)-2,6-dimethylmorpholino)methyl)-2-(3-(l-methyl-4-(4-methyl-4H-1,2,4-triazol-3-yl)-1H-pyrazol-5-yl)phenyl)-4-(trifluoromethyl)isoindolin-1-one], for which the values for the IC50 on Cbl-b [1] and at Cbl-b [2] were at most 100 nM and below 100 nM, respectively.

Regarding `Cn1cnnc1CC1(c2cccc(N3Cc4c(cc(CC5CNCCC5=O)cc4C(F)(F)F)C3=O)c2)COC1` (centres unmarked) [Compound 530, 2-(3-(3-((4-methyl-4H-1,2,4-triazol-3-yl)methyl)oxetan-3-yl)phenyl)-6-((4-oxopiperidin-3-yl)methyl)-4-(trifluoromethyl)isoindolin-1-one], the results for the IC50 on Cbl-b [1] and at Cbl-b [2] were at most 100 nM and below 100 nM, respectively.

On to `CC(c1cc2c(c(C(F)(F)F)c1)CN(c1cccc(C3(Cc4nncn4C)COC3)c1)C2=O)n1ccnc1` (centres unmarked) [Compound 542, 6-(1-(1H-imidazol-1-yl)ethyl)-2-(3-(3-((4-methyl-4H-1,2,4-triazol-3-yl)methyl)oxetan-3-yl)phenyl)-4-(trifluoromethyl)isoindolin-1-one], for which the IC50 at Cbl-b [1] is at most 100 nM; on Cbl-b [2] it was below 100 nM.

Take `CN(c1cc2c(c(C(F)(F)F)c1)CN(c1cccc([C@@](C)(F)C(F)(F)c3nncn3C)c1)C2=O)[C@H]1CNC[C@@H]1F` [Example 550, 6-(((3S,4S)-4-fluoropyrrolidin-3-yl)(methyl)amino)-2-(3-((R)-1,1,2-trifluoro-1-(4-methyl-4H-1,2,4-triazol-3-yl)propan-2-yl)phenyl)-4-(trifluoromethyl)iso-indolin-1-one]: the IC50 at Cbl-b [1] is at most 100 nM; at Cbl-b [2] it was below 100 nM.

In the case of `CN(c1cc2c(c(C(F)(F)F)c1)CN(c1cccc([C@@](C)(F)C(F)(F)c3nncn3C)c1)C2=O)[C@@H]1CNC[C@H]1F` [Example 551, 6-(((3R,4R)-4-fluoropyrrolidin-3-yl)(methyl)amino)-2-(3-((R)-1,1,2-trifluoro-1-(4-methyl-4H-1,2,4-triazol-3-yl)propan-2-yl)phenyl)-4-(trifluoromethyl)iso-indolin-1-one], the IC50 is at most 100 nM at Cbl-b [1] and below 100 nM on Cbl-b [2].

`Cn1cnnc1CC1(c2cccc(N3Cc4c(cc(CN5CCC(F)CC5)cc4C4CC4)C3=O)c2)COC1` [Example 552, 4-cyclopropyl-6-((4-fluoropiperidin-1-yl)methyl)-2-(3-(3-((4-methyl-4H-1,2,4-triazol-3-yl)methyl)oxetan-3-yl)phenyl)isoindolin-1-one]: the values for the IC50 on Cbl-b [1] and on Cbl-b [2] were at most 100 nM and below 100 nM, respectively.

On to `Cn1cnnc1CC1(c2cccc(N3Cc4c(cc(C(O)C(F)(F)F)cc4C(F)(F)F)C3=O)c2)COC1` (centres unmarked) [Example 580, 2-(3-(3-((4-Methyl-4H-1,2,4-triazol-3-yl)methyl)oxetan-3-yl)phenyl)-6-(2,2,2-trifluoro-1-hydroxyethyl)-4-(trifluoromethyl)isoindolin-1-one], for which the IC50 at Cbl-b [1] is at most 100 nM; on Cbl-b [2], below 100 nM.

In the case of `Cc1cc(C(=O)Nc2cccc(C3(Cc4nncn4C)COC3)c2)n2nc(C)cc2n1` [Example 597, 2,5-dimethyl-N-(3-(3-((4-methyl-4H-1,2,4-triazol-3-yl)methyl)oxetan-3-yl)phenyl)pyrazolo[1,5-a]pyrimidine-7-carboxamide], the 50% inhibitory concentration (IC50) at Cbl-b [1] was at most 300 nM; at Cbl-b [2], 100 to 300 nM.

For `Cn1cnnc1CC1(c2cccc(N3Cc4c(cc(C5CCCOC5)cc4C(F)(F)F)C3=O)c2)COC1` (centres unmarked) [Example 615, 2-(3-(3-((4-methyl-4H-1,2,4-triazol-3-yl)methyl)oxetan-3-yl)phenyl)-6-(tetrahydro-2H-pyran-3-yl)-4-(trifluoromethyl)isoindolin-1-one], the IC50 at Cbl-b [1] is at most 100 nM; at Cbl-b [2] it was below 100 nM.

In the case of `CC1=C(c2cc3c(c(C(F)(F)F)c2)CN(c2cccc(C4(Cc5nncn5C)COC4)c2)C3=O)CCO1` [Example 616, 6-(2-methyl-4,5-dihydrofuran-3-yl)-2-(3-(3-((4-methyl-4H-1,2,4-triazol-3-yl)methyl)oxetan-3-yl)phenyl)-4-(trifluoromethyl)isoindolin-1-one], the figures for the IC50 at Cbl-b [1] and on Cbl-b [2] were at most 100 nM and below 100 nM, respectively.

Regarding `Cn1cnnc1C[C@H](c1cccc(N2Cc3c(cccc3C(F)(F)F)C2=O)c1)C(F)F` [Example 617, (R)-2-(3-(1,1-difluoro-3-(4-methyl-4H-1,2,4-triazol-3-yl)propan-2-yl)phenyl)-4-(trifluoromethyl)isoindolin-1-one], the IC50 at Cbl-b [1] was at most 300 nM; at Cbl-b [2], 100 to 300 nM.

With `Cn1cnnc1CC1(c2cccc(N3Cc4c(cc(CN5CC[C@H](F)[C@@H](F)C5)cc4C(F)(F)F)C3=O)c2)COC1` [Example 626a, 6-(((3S,4S)-3,4-difluoropiperidin-1-yl)methyl)-2-(3-(3-((4-methyl-4H-1,2,4-triazol-3-yl)methyl)oxetan-3-yl)phenyl)-4-(trifluoromethyl)isoindolin-1-one], the IC50 at Cbl-b [1] is at most 100 nM; at Cbl-b [2], below 100 nM.

`Cn1cnnc1CC1(c2cccc(N3Cc4c(cc(CN5CC[C@@H](F)[C@H](F)C5)cc4C(F)(F)F)C3=O)c2)COC1` [Example 626b, 6-(((3R,4R)-3,4-difluoropiperidin-1-yl)methyl)-2-(3-(3-((4-methyl-4H-1,2,4-triazol-3-yl)methyl)oxetan-3-yl)phenyl)-4-(trifluoromethyl)isoindolin-1-one]: the IC50 on Cbl-b [1] was at most 100 nM; on Cbl-b [2] it was below 100 nM.

Regarding `Cn1cnnc1CC1(c2cccc(N3Cc4c(cc(CN5CCOC(C(F)F)C5)cc4C(F)(F)F)C3=O)c2)COC1` (centres unmarked) [Example 630, 6-{[2-(difluoromethyl)morpholin-4-yl]methyl}-2-(3-{3-[(4-methyl-1,2,4-triazol-3-yl)methyl]oxetan-3-yl}phenyl)-4-(trifluoromethyl)-3H-isoindol-1-one], the IC50 was at most 100 nM on Cbl-b [1] and below 100 nM on Cbl-b [2].
